These results are taken from patent US9481700B2, “Method for preparing isofagomine and its derivatives” (Amicus Therapeutics, Inc., priority 2007, dated 2016).

Counter-ions that a name gives are not always drawn.

One assay has as its target T1, human GCase (Homo sapiens, UniProt P04062).
T1 construct: human GCase in healthy volunteers; endogenous in cells
T1 sequence (P04062 40-536): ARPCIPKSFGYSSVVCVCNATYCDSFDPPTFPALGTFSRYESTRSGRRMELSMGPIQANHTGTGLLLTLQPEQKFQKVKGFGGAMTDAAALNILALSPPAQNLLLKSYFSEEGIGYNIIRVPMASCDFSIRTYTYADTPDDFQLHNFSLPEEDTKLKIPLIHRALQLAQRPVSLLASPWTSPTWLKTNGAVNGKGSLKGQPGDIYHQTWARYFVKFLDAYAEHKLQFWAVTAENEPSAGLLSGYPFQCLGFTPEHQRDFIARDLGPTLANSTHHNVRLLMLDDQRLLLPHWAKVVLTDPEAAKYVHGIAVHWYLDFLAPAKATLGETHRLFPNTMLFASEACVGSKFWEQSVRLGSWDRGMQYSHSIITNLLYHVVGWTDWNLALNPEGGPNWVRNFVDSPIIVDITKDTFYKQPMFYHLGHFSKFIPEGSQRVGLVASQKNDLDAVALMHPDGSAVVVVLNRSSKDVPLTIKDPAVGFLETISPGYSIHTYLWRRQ
The experiment in a line: Phase 1 clinical trials, GCase activity in healthy volunteers. Type of assay: in vivo. An excerpt: (§1) In the absence of the “pharmacological chaperone,” the mutated enzyme protein misfolds in the ER (Ishii et al., Biochem. Biophys. Res. Comm. 1996; 220: 812-815), is retarded in its maturation to a final product, and is subsequently degraded by the ER-associated degradation mechanism. Homozygous mutant GCase is associated with the lysosomal storage disease Gaucher disease.

Assay [1] deals with GCase. As to the kind of experiment: Phase 2 clinical trials, GCase activity in Gaucher patients expressing certain missense mutations. It counts as in vivo, human. As to conditions: Gaucher patients expressing certain missense mutations that create misfolded GCase.
From the text: as §1

A further assay concerns mutant GCase. The note with it: in vitro, fibroblasts from Gaucher patients; cited from earlier work.
Assay [2] relates to GCase. As to the kind of experiment: Mouse model of Gaucher disease expressing mutations in the Gba gene. As to conditions: in vivo, unpublished data.
From the text: as §1

Turning to `OC[C@H]1CNC[C@@H](O)[C@@H]1O` [IFG tartrate], the “increase of the activity of human GCase” value on human GCase was “up to 3.5 fold”. Further, the GCase activity entry in the assay with GCase [1] is “increase in GCase activity”.

For `OC[C@H]1CNC[C@@H](O)[C@@H]1O` [IFG, (3R,4R,5R)-3,4-dihydroxy-5-hydroxymethyl-piperidine], the “activity of mutant GCase” value in the assay with mutant GCase is “increase the activity of mutant GCase”. In the assay on GCase [2], the GCase activity entry was “increases GCase activity” and the phenotype entry is on record as “improves the phenotype”.
